{
  "source": "paper PMC4450806",
  "about": "“The cytochrome bd-type quinol oxidase is important for survival of Mycobacterium smegmatis under peroxide and antibiotic-induced stress” (Scientific Reports, 2015)",
  "target": "T1, cytochrome bd-type quinol oxidase (cytochrome bd) (Mycolicibacterium smegmatis, UniProt A0QXA8)",
  "T1 construct": "gene MSMEG_3233; native enzyme in inverted membrane vesicles of the ΔqcrCAB :: hyg strain (cytochrome bd as the only respiratory branch); with CydB (cytochrome bd subunit)",
  "test": "NADH-driven oxygen consumption of inverted membrane vesicles (Clark-type electrode), wild-type versus bc1-knockout strain",
  "format": "biochemical",
  "data": [
    {"smiles": "CC(C)=CCC/C(C)=C/CC/C(C)=C/Cc1c(C)[nH]c2ccccc2c1=O", "note": "[aurachin D]", "values": [
      {"measurement": "IC50", "value": "~400", "unit": "nM"}
    ]}
  ]
}
